These results are taken from US20250034216A1, “STEREOSELECTIVE COVALENT LIGANDS FOR ONCOGENIC AND IMMUNOLOGICAL PROTEINS” (The Scripps Research Institute, priority 2021, published 2025).

Holding throughout (assay): IA-DTB cysteine engagement
Format in all cases: binding

The target in one assay is T1, ABCB8_C461 (Homo sapiens, UniProt Q9NUT2).
T1 construct: endogenous in cells; host or cells: 22Rv1
T1 sequence (Q9NUT2 26-735): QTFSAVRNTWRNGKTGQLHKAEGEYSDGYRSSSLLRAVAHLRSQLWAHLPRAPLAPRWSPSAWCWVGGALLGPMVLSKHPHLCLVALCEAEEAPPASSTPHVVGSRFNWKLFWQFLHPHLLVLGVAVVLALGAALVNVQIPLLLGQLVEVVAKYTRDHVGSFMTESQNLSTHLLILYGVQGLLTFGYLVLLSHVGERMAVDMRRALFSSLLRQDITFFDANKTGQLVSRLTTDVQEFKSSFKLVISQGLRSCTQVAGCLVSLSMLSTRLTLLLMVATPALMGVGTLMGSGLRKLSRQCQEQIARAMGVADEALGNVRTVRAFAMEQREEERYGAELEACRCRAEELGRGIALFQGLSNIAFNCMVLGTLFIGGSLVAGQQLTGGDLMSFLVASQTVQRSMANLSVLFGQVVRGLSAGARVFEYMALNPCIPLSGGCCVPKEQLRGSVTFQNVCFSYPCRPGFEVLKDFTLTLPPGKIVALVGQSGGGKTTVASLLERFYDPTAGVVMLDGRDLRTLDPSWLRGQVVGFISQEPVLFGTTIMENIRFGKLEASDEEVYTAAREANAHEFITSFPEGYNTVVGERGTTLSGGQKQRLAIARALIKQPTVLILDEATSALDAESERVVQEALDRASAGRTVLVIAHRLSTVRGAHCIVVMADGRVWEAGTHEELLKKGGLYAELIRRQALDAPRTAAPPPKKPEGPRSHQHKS
The note with it: 22Rv1 cells, 20 μM probe, 1 h, relative to DMSO. A digest of the protocol: (§1)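 Read-out is TMT-based cysteine engagement, expressed as each reporter ion intensity divided by the average of the DMSO channels. Before that, probe-treated cell lysates were capped with IA-DTB, digested, enriched on streptavidin and TMT-tagged. PSMs with DMSO summed intensity <10,000 or DMSO CV >0.5 were excluded.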

The target of a further assay is T2, ALB_C269 (Homo sapiens, UniProt P02768).
T2 construct: endogenous in cells; host or cells: 22Rv1
T2 sequence (P02768 25-609): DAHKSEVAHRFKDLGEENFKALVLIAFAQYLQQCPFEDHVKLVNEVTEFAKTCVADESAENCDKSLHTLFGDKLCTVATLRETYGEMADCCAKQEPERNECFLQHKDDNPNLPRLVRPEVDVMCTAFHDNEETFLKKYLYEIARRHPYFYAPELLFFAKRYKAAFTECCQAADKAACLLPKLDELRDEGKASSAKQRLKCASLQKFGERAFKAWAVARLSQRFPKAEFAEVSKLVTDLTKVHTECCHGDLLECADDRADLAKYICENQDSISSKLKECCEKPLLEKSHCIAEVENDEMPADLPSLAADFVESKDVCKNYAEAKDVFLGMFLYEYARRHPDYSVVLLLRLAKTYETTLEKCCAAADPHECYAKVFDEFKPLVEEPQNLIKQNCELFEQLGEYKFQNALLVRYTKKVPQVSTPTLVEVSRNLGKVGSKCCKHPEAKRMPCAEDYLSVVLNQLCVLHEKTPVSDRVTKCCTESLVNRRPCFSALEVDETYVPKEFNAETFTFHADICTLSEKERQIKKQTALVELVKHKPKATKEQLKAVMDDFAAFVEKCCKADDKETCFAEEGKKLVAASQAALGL
The conditions noted are these: 22Rv1 cells, 20 μM probe, 1 h, relative to DMSO. A digest of the protocol: as §1

A further assay addresses T3, GRIN2C_C1105 (Homo sapiens, UniProt Q14957).
T3 construct: endogenous in cells; host or cells: 22Rv1
The conditions noted are these: 22Rv1 cells, 20 μM probe, 1 h, relative to DMSO. A digest of the protocol: as §1

For a further assay, the target named is T4, GSTO1_C32 (Homo sapiens, UniProt P78417).
T4 construct: endogenous in cells; host or cells: 22Rv1
T4 sequence (P78417 1-241): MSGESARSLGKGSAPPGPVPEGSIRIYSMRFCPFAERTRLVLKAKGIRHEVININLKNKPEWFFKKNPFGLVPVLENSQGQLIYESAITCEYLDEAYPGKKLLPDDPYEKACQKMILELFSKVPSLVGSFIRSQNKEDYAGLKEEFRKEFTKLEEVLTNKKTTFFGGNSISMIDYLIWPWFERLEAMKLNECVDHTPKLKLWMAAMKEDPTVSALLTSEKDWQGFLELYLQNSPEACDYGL
The note with it: 22Rv1 cells, 20 μM probe, 1 h, relative to DMSO. In short, it runs like this:
as §1

The next assay deals with T5, NCAPD2_C439 (Homo sapiens, UniProt Q15021).
T5 construct: endogenous in cells; host or cells: 22Rv1
T5 sequence (Q15021 whole entry): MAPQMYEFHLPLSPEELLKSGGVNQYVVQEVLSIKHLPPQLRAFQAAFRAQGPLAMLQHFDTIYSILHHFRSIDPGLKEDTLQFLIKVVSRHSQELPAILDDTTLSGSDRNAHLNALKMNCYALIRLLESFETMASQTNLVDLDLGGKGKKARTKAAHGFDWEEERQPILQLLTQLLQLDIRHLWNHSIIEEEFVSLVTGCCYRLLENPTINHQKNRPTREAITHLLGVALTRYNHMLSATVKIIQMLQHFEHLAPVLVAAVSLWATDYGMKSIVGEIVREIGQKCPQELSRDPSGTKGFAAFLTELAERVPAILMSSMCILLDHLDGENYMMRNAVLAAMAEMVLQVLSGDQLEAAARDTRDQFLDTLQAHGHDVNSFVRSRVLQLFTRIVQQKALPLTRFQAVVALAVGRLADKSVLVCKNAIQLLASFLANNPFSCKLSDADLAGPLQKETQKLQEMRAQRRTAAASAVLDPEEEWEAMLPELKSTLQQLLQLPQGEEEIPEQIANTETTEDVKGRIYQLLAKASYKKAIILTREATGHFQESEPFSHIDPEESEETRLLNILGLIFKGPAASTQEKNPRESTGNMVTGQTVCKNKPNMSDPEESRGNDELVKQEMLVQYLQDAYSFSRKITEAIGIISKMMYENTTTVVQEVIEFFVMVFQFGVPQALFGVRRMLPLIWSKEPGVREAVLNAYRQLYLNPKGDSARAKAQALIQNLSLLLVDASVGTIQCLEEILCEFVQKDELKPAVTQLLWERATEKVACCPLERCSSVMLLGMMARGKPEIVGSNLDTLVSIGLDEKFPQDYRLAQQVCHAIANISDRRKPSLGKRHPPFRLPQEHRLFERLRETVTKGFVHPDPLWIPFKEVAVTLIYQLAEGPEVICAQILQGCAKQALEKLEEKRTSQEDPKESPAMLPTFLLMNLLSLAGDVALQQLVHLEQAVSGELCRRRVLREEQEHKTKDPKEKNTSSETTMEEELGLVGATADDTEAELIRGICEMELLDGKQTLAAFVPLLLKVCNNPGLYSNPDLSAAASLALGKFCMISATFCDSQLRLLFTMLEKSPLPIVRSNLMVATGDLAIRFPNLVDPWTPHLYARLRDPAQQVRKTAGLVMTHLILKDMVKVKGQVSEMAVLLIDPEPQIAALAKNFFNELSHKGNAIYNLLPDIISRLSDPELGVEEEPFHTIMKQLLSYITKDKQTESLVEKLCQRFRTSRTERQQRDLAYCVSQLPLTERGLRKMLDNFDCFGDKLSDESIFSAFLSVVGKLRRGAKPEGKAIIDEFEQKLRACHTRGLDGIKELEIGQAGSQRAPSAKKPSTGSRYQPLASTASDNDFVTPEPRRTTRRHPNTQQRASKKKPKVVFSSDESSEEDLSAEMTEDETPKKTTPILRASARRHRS
The conditions noted are these: 22Rv1 cells, 20 μM probe, 1 h, relative to DMSO; for % engagement NCAPD2_C439: 60 min, 20 µM. In short, it runs like this:
as §1

The target of another assay is T6, TMEM50A_C13 (Homo sapiens, UniProt O95807).
T6 construct: endogenous in cells; host or cells: 22Rv1
T6 sequence (O95807 whole entry): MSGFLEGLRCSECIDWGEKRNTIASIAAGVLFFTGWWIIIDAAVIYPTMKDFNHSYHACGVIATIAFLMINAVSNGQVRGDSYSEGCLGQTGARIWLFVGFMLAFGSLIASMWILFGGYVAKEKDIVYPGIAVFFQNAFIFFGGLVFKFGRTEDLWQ
The note with it: 22Rv1 cells, 20 μM probe, 1 h, relative to DMSO. In short, it runs like this: as §1

T3 sequence (Q14957 20-1233, other chains not shown): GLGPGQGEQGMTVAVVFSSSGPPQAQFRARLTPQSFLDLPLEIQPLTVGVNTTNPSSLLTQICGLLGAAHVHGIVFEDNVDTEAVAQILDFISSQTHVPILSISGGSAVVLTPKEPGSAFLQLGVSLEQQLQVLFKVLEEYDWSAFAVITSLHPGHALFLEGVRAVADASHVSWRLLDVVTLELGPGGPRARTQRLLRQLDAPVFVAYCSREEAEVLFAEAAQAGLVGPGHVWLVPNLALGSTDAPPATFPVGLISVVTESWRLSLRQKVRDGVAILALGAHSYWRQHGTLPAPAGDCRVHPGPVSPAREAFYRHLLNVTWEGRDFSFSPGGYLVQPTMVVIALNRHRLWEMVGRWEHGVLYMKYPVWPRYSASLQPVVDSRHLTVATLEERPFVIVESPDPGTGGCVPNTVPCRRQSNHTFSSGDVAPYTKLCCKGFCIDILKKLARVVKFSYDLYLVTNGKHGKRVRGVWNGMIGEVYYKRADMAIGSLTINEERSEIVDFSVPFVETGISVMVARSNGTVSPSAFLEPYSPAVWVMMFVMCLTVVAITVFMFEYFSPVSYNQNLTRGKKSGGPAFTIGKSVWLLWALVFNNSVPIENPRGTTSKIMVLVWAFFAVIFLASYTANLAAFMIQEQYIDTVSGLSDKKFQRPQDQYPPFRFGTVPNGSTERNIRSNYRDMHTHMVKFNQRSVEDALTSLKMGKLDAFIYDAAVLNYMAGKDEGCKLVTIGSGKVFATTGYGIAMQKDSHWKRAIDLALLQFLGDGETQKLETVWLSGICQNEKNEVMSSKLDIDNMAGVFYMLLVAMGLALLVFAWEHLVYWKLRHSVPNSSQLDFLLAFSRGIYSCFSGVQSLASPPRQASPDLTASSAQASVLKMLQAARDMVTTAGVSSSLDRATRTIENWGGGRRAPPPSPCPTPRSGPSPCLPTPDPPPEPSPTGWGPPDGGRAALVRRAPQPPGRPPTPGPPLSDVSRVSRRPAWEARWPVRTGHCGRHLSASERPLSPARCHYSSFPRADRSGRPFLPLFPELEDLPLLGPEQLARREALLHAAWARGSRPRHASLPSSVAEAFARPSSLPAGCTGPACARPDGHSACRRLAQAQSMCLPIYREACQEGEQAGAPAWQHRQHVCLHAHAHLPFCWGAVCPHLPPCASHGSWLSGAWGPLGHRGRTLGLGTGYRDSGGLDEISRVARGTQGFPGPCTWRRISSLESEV

With `C=CC(=O)N1C[C@H](c2ccc(Br)cc2)[C@H]1C(=O)Nc1cccc2cccnc12` [MY-3A, (2S,3S)-1-acryloyl-3-(4-bromophenyl)-N-(quinolin-8-yl)azetidine-2-carboxamide], at ABCB8_C461, the “% engagement ABCB8_C461” value is listed as 32.5%. Besides, the “% engagement ALB_C269” value on ALB_C269 was 86%. Also, at GRIN2C_C1105, the “% engagement GRIN2C_C1105” value stood at 85%. On GSTO1_C32, the “% engagement GSTO1_C32” value was 79%. In addition, at NCAPD2_C439, the “% engagement NCAPD2_C439” value amounted to 21.5%. In addition, the “% engagement TMEM50A_C13” value at TMEM50A_C13 stood at 60.5%.

In general, inhibition refers to the share of the control response that was lost under treatment. For the compound `C=CC(=O)N1C[C@@H](c2ccc(Br)cc2)[C@H]1C(=O)Nc1cccc2cccnc12` [MY-1A, (2S,3R)-1-acryloyl-3-(4-bromophenyl)-N-(quinolin-8-yl)azetidine-2-carboxamide], the “% engagement ABCB8_C461” value on ABCB8_C461 is given as −3%. In addition, the “% engagement ALB_C269” value at ALB_C269 is recorded as 42.5%. The “% engagement GRIN2C_C1105” value on GRIN2C_C1105 is given as 78.5%. At GSTO1_C32, the “% engagement GSTO1_C32” value worked out at 22%. On NCAPD2_C439, the inhibition at 20 µM stood at 29.5%. In addition, at TMEM50A_C13, the “% engagement TMEM50A_C13” value was found to be 63.5%.

As for `C=CC(=O)N1C[C@H](c2ccc(Br)cc2)[C@@H]1C(=O)Nc1cccc2cccnc12` [MY-1B, (2R,3S)-1-acryloyl-3-(4-bromophenyl)-N-(quinolin-8-yl)azetidine-2-carboxamide], the “% engagement ABCB8_C461” value on ABCB8_C461 is 0%. The “% engagement ALB_C269” value at ALB_C269 stood at 47.5%. For the same compound, the “% engagement GRIN2C_C1105” value at GRIN2C_C1105 came out at 40.5%. Besides, the “% engagement GSTO1_C32” value at GSTO1_C32 stood at 82%. Moreover, the inhibition at 20 µM at NCAPD2_C439 amounted to 20%. In addition, the “% engagement TMEM50A_C13” value on TMEM50A_C13 is 58%.

Turning to `C=CC(=O)N1C[C@H](c2ccc(Br)cc2)[C@H]1C(=O)Nc1cccc2cccnc12` [MY-3B, (2S,3S)-1-acryloyl-3-(4-bromophenyl)-N-(quinolin-8-yl)azetidine-2-carboxamide], the “% engagement ABCB8_C461” value on ABCB8_C461 is listed as 66.5%. On ALB_C269, the “% engagement ALB_C269” value is 79.5%. The “% engagement GRIN2C_C1105” value on GRIN2C_C1105 is 64.5%. The “% engagement GSTO1_C32” value on GSTO1_C32 is 80.5%. Besides, the “% engagement NCAPD2_C439” value at NCAPD2_C439 was 80%. Besides, on TMEM50A_C13, the “% engagement TMEM50A_C13” value is on record as 68.5%.
